Reference: article PMC12670405, “Second-Generation AURKA-Targeting PROTACs: Structural Optimization toward in Vivo Degradation in Neuroblastoma” (Journal of Medicinal Chemistry, 2025)

Key:
[1] = target: T1, CRBN (Homo sapiens, UniProt Q96SW2); assay: CRBN binding assay (E3scan, Eurofins Discovery)
T1 construct: purchased Eurofins Discovery
Experimental: (§1) AURKA, AURKB and CRBN binding assays were performed by Eurofins Discovery using the KdELECT Kinase Assay Panel (AURKA and AURKB), or the E3scan Ligand Binding Assay Technology (CRBN). More information can be found on the Eurofins Discovery Web site.
(§2) Graphs were generated using GraphPad Prism Software (version 10.1.2) or RStudio (R-4.3.2). All dose–response curves were computed on GraphPad Prism using the Variable Slope (four parameters) equation. Absolute half-maximal degradation (DC50), growth inhibitory (GI50) and enzymatic inhibitory (IC50) concentrations, as well as inhibition constants (Ki) were derived from dose–response curves via interpolation. Statistical tests were performed on GraphPad Prism and detailed in the figure legends. Unless otherwise stated, “n” in the figure legends indicates the number of independent experiments conducted at different times.

[2] = In vivo pharmacokinetics study; parameters: species or system ICR (CD-1) mice; conditions: for clearance / bioavailability: male, ICR (CD-1), mouse, plasma; for clearance: iv, 15 mg/kg, read-out: CLIV, mouse (in vivo systemic clearance); for clearance / CLIV, mouse (in vivo systemic clearance): IV 15 mg/kg, noncompartmental analysis; for bioavailability: mice, PO 30 mg/kg vs IV 15 mg/kg
Experimental: Both the in vivo pharmacokinetics and in vivo pharmacodynamics studies were performed by Eurofins Pharmacology Discovery Services. All mice were provided by BioLasco Taiwan (under Charles River Laboratories Licensee). Animals were acclimated for 3 days prior to use and were confirmed to be in good health. All aspects of this work including housing, experimentation, and animal disposal were performed in general accordance with the “Guide for the Care and Use of Laboratory Animals: Eighth Edition” (National Academies Press, Washington, DC. 2011) in a AAALAC-accredited laboratory animal facility. In addition, the animal care and use protocol was reviewed and approved by the IACUC at Eurofins Pharmacology Discovery Services; IN020-08202020 and ON002-07142023.
Male ICR (CD-1) mice, weighing 30 ± 5 g, were given intravenous (IV), intraperitoneal (IP) or oral gavage (PO) administrations of PROTACs at 15 mg/kg (IV and IP) or 30 mg/kg (PO). Dosing volumes used were 5 mL/kg (IV and IP) and 10 mL/kg (PO). The test compounds were dissolved in 5% DMSO/5% Solutol HS15/90% PBS. Serial blood samples were collected at 0.05, 0.167, 0.5, 1, 2, 4, 8, 12 h postadministration (an additional 24h sample was collected for IV-administered mice). Blood samples were collected from three animals at each time point via facial vein (±50 μL) for the first time points and cardiac puncture (±300 μL) for the final time point and stored in tubes coated with lithium heparin. Within 1h of collection, samples were mixed gently and centrifuged at 2500 g for 15 min at 4 °C. Plasma samples were then harvested and kept frozen at −70 °C until further processing. Samples were processed using acetonitrile precipitation and analyzed by LC–MS/MS. Mean plasma concentrations were plotted as a function of time and the fundamental PK parameters were obtained from a noncompartmental analysis (NCA) using WinNonlin. Free drug levels (C p,u) for SK4454 and SK5527 were calculated by factoring in their plasma protein binding (f u) values using the following formula: C p,u = C p * f u.

[3] = target: T2, AURKB (Homo sapiens, UniProt Q96GD4); assay: AURKB binding assay (KINOMEscan / KdELECT, Eurofins Discovery)
T2 construct: purchased Eurofins Discovery
Experimental: as §1, §2

[4] = target: T3, AURKA (Homo sapiens, UniProt O14965); assay: AURKA binding assay (KINOMEscan / KdELECT, Eurofins Discovery); parameters: purchased Eurofins Discovery; conditions: for binding selectivity for AURKA over AURKB: Ki AURKB vs Ki AURKA
T3 sequence (O14965 1-403): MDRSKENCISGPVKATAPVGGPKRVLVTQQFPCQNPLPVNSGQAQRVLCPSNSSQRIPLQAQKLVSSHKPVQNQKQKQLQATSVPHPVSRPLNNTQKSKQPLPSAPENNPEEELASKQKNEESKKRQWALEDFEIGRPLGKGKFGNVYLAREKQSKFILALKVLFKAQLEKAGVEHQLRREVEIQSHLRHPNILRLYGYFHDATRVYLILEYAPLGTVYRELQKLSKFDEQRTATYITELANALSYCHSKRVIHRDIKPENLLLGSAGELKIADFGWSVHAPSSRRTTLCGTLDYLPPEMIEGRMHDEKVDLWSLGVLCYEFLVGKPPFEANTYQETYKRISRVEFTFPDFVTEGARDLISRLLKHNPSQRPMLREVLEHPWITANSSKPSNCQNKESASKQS
Experimental: as §1, §2

[5] = tested on: SJNB-8; assay: IncuCyte live-cell imaging, antiproliferative effect; assay type: cell-based; conditions: Homo sapiens, 72 h, read-out: Cell GI50 72h, SJNB-8
In short: (§3)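 Cells seeded in 384-well plates (neuroblastoma 1200–5000, HEK293T 600 cells/well), adhered overnight, then compound-treated in duplicate or triplicate; confluency tracked by IncuCyte live-cell imaging. Normalized confluence averaged from 3 experiments; absolute GI50 interpolated from four-parameter variable-slope curves.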

[6] = tested on: SK-N-AS; assay: as above; assay type: cell-based; conditions: Homo sapiens, 72 h, read-out: Cell GI50 72h
In short: as §3

[7] = tested on: SK-N-SH; assay: as above; assay type: cell-based; conditions: Homo sapiens, 72 h, read-out: Cell GI50 72h
In short: as §3

[8] = tested on: SK-N-BE(2)-C; assay: as above; assay type: cell-based, human; conditions: 72 h; for GI50: Homo sapiens, SK-N-BE(2)-C, read-out: Cell GI50 72h; for growth-inhibitory activity upon cotreatment with tariquidar (in words): NGP, SJNB-8 and SK-N-BE(2)-C, 1 μM tariquidar
Source text: Human neuroblastoma cell lines NGP, IMR-32, SJNB-8, SK-N-BE(2)-C, SJNB-1, SK-N-SH and SK-N-AS, as well as benign immortalized cell lines RPE and HEK293T were either bought commercially or obtained through research laboratories. […] Screening for mycoplasma contamination occurred routinely on the cells. Human neuroblastoma cell lines SH-SY5Y_shABCB1 & SH-SY5Y_shNTC were generated by transduction with pLKO.1-ABCB1_TRCN0000059683 shRNA (Sigma MISSION SHCLND) or pLKO.1-puro NT shRNA (Sigma MISSION SHC002) vectors respectively (Supplementary Table S6), packaged using Lenti-X293T (Clontech). Transduced cells were selected with 2 μg/mL puromycin. These cells were cultured in DMEM 4.5 g/L D-Glucose, L-Glutamine and 110 mg/L Sodium Pyruvate (Gibco, #11995065) supplemented with 10% fetal bovine serum, 1× Antibiotic-Antimycotic solution (Sigma-Aldrich, #A5955) and 1× MEM nonessential amino acids (Sigma-Aldrich, #M7145). Incubation of all cells occurred at 37 °C and 5% CO2.
Neuroblastoma cells were seeded in 384-well plates at different densities ranging from 1200 to 5000 cells/well and allowed to adhere overnight. RPE and HEK293T were seeded at 200 and 600 cells/well, respectively. Compound treatment was performed using the D300e Digital Dispenser (Tecan) in duplicate or triplicate and cell confluency was monitored over time using the IncuCyte Live-cell imaging system (Sartorius). […] Mean normalized confluences were calculated from 3 individual experiments.
All dose–response curves were computed on GraphPad Prism using the Variable Slope (four parameters) equation. Absolute half-maximal degradation (DC50), growth inhibitory (GI50) and enzymatic inhibitory (IC50) concentrations, as well as inhibition constants (Ki) were derived from dose–response curves via interpolation. Statistical tests were performed on GraphPad Prism and detailed in the figure legends. Unless otherwise stated, “n” in the figure legends indicates the number of independent experiments conducted at different times.

T2 sequence (Q96GD4 whole entry): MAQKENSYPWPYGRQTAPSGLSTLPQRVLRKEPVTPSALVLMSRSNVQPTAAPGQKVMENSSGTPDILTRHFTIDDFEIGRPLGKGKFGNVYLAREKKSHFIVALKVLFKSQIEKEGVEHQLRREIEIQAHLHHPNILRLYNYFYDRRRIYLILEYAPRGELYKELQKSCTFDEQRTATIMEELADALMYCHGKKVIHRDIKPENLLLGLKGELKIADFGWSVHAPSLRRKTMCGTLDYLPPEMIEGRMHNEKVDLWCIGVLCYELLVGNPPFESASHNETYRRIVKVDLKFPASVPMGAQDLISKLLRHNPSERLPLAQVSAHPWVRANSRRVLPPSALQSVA
T1 sequence (Q96SW2 whole entry): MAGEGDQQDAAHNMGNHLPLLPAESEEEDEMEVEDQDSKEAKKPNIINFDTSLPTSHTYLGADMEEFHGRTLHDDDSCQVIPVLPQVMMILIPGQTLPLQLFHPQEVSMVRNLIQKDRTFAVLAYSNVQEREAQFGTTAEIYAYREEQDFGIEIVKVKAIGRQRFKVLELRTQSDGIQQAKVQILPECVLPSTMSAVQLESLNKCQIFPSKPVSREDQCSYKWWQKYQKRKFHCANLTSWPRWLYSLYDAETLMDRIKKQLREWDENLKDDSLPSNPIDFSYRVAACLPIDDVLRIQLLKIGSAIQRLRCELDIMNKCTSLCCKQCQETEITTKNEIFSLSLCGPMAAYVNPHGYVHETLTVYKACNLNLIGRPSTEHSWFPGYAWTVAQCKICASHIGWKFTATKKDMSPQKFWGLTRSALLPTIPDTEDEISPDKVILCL

Row | Ki [1] | clearance [2] | Ki [3] | Ki [4] | binding selectivity for AURKA over AURKB [4] | GI50 [6] | GI50 [7] | GI50 [8] | CLIV, mouse (in vivo systemic clearance) ([2]; listed as PROTAC 32, 15 mg/kg) | Compound | GI50 [5] | growth-inhibitory activity upon cotreatment with tariquidar (in words) [8] | bioavailability [2] | CLIV, mouse (in vivo systemic clearance) ([2]; listed as PROTAC 33, 15 mg/kg)
1 | 1210 nM | 23 mL/min/kg |  |  |  |  |  |  |  | O=C1CCC(Nc2ccc(N3CCN(C4CN(C(=O)[C@]5(Cc6cccc(Nc7nccs7)n6)CC[C@@H](Oc6cccc(Cl)c6F)CC5)C4)CC3)c(F)c2)C(=O)N1 (stereo partly drawn) [PROTAC 18] |  |  |  | 
2 |  | 35 mL/min/kg |  |  |  |  |  |  |  | O=C1CCN(c2ccc(N3CCN(CC4CN(C(=O)[C@]5(Cc6cccc(Nc7nccs7)n6)CC[C@@H](Oc6cccc(Cl)c6F)CC5)C4)CC3)nc2)C(=O)N1 [PROTAC 23] |  |  |  | 
3 | 4300 nM | 22 mL/min/kg | 2.39 µM | 1 nM | more than 2000 fold |  |  |  |  | O=C1CCN(c2ccc(N3CCN(CC4CCN(C(=O)[C@]5(Cc6cccc(Nc7nccs7)n6)CC[C@@H](Oc6cccc(Cl)c6F)CC5)CC4)CC3)nc2)C(=O)N1 [PROTAC 24] |  |  |  | 
4 |  | 38 mL/min/kg |  |  |  |  |  |  |  | Cc1cc(Nc2ccc(F)c(CC3(C(=O)N4CC(N5CCN(c6ccc(NC7CCC(=O)NC7=O)cc6F)CC5)C4)CCN(Cc4cccc(Cl)c4F)CC3)n2)n[nH]1 (stereo not drawn) [PROTAC 29] |  |  |  | 
5 | 273 nM | 114 mL/min/kg | 5.61 µM | 2 nM | more than 2000 fold | 3180 nM | 1580 nM | 3730 nM |  | O=C1CCC(N2C(=O)c3cccc(OCCOCCOCCOCCNC(=O)[C@]4(Cc5cccc(Nc6nccs6)n5)CC[C@@H](Oc5cccc(Cl)c5F)CC4)c3C2=O)C(=O)N1 (stereo partly drawn) [SK2188, reference compound] | 173 nM |  |  | 
6 | 4060 nM | 18 mL/min/kg | 7.64 µM | 1 nM | more than 2000 fold | 994 nM | 430 nM | 1110 nM | 18.1 mL/min/kg | Cc1cc(Nc2ccc(F)c(CC3(C(=O)N4CCC(CN5CCN(c6ccc(N7CCC(=O)NC7=O)cn6)CC5)CC4)CCN(Cc4cccc(Cl)c4F)CC3)n2)n[nH]1 [SK4454] | < 100 nM | comparable to AURKA inhibitor TAS-119 | 7% | 

Row | Compound | Ki [1] | clearance [2] | Ki [3] | Ki [4] | binding selectivity for AURKA over AURKB [4] | GI50 [6] | GI50 [7] | GI50 [8] | CLIV, mouse (in vivo systemic clearance) ([2]; listed as PROTAC 32, 15 mg/kg) | GI50 [5] | growth-inhibitory activity upon cotreatment with tariquidar (in words) [8] | bioavailability [2] | CLIV, mouse (in vivo systemic clearance) ([2]; listed as PROTAC 33, 15 mg/kg)
7 | Cc1cc(Nc2ccc(F)c(CC3(C(=O)N4CCC(F)(CN5CCN(c6ccc(N7CCC(=O)NC7=O)cn6)CC5)CC4)CCN(Cc4cccc(Cl)c4F)CC3)n2)n[nH]1 [SK5527] | 1130 nM | 12 mL/min/kg | > 10 µM | 2 nM | more than 2000 fold | 654 nM | 244 nM | 477 nM |  | < 100 nM | comparable to AURKA inhibitor TAS-119 | 11% | 12.2 mL/min/kg
